Measurements reported in patent US9028856B2, “Synergistic pesticide compositions” (priority 2008, dated 2015).

Key:
[1] = system: malaria mosquito (Anopheles gambiae); assay: Five-minute exposure bioassay, WHO Adult Mosquito Susceptibility Test Kit, treated filter paper; format: in vivo; conditions: for KT 50 / KT 95 / % knock down after 10′ / % knock down after 15′ / % knock down after 20′ / % knock down after 25′ / % knock down after 30′ / % knock down after 45′ / % knock down after 60′ / % mortality 1 d: Table 80, filter paper (mg/m^2); for % mortality 1 d: mortality 24 hours post exposure; for % knock down after 5′: Table 80, technical sample on filter paper (mg/m^2)
Description: The bioassays were carried out using the WHO Adult Mosquito Susceptibility Test Kit, (WHO/VBC 81.805, 1981) with plastic cylinders (4.5 cm diameter, 12 cm height). All bioassays were done using preferably female sugar fed Anopheles gambiae mosquitoes. Knock down was recorded after at 5, 10, 15, 20, 25, 30, 45 and 60 minutes, when the mosquitoes were supplied with a 5% sugar water source for 24 hours. Mortality was recorded 24 hours post exposure. Each test consisted of three replicates from which the mean values were calculated. The insecticides (all technical grades) were applied as 2 ml acetone solutions onto filter papers (12 cm×15 cm).

[2] = system: tropical house mosquito Culex quinquefasciatus (adults, 3 days old); assay: Efficacy of formulations on surfaces (glazed/unglazed tiles, plywood), ten 3 day old mosquitoes, 3 min exposure; format: in vivo; conditions: for efficacy enhancement of the insecticide by the additive (summary in words): Culex quinquefasciatus, 3 min exposure, mostly 0.1% bendiocarb + 1% additive on glazed tiles, details as worded; for % KD and Mortality: in acetone on glazed tiles, Table 84
Description: The ingredients were diluted in acetone to give a concentration which corresponds to the desired quantity of a.i./m^2. A 1 ml quantity of the solution was applied by pipette onto the 15 cm×15 cm surfaces without treating the outer edge of 1 cm.
(§1) Ten 3 day old Culex quinquefasciatus mosquitoes were exposed to each treatment for 3 minutes under a perforated petri dish, and then a clean untreated white paper index card was moved between treated surface and petri dish. A water-soaked cotton pad was applied immediately after.
Each test consisted of three replicates (three batches of ten mosquitoes were exposed for three minutes to the same surface, each one hour later), of which the mean values are calculated.
The test insects were Culex quinquefasciatus (adults, 3 days old). The compositions were evaluated for their ability to provide effective knock down after 3, 9, 15, and 30 minutes, 1, 2, 3, 4 and 24 hours (mortality). The experiments were performed in triplicate on glazed tile, but not repeated on wood.
Test Insects are Culex quinquefasciatus (adults, 3 days old). The Application provides the technical compounds were dissolved in acetone and applied as 1 ml solutions onto glazed tiles (15 cm×15 cm). An evaluation is provided at knock down after 3, 9, 15, and 30 minutes, 1, 2, 3, 4 and 24 hours (mortality). There are 3 replicates.
Test Insects: Culex quinquefasciatus (adults, 3 days old)
Application: The technical compounds were dissolved in acetone and applied as 1 ml solutions onto glazed tiles (15 cm×15 cm).
Evaluation: Knock down after 3, 9, 15, and 30 minutes, 1, 2, 3, 4 and 24 hours (mortality) […]
Application: The active ingredients were applied as 1 ml acetone solutions onto glazed tiles (15 cm×15 cm) […]
as §1, with “For the mosquitoes, the USDA Petri Dish Method is used. Ten” for “Ten”, “are” for “were”, “dish” for “dish,”, “is” for “was”, “after. […]” for “after.”

Row | SMILES | KT 50 [1] [min] | KT 95 [1] [min] | % knock down after 10′ [1] [%] | % knock down after 15′ [1] [%] | % knock down after 20′ [1] [%] | % knock down after 25′ [1] [%] | % knock down after 30′ [1] [%] | % knock down after 45′ [1] [%] | % knock down after 60′ [1] [%] | % mortality 1 d [1] [%] | % knock down after 5′ [1] [%] | further results
1 | CC1(C)[C@H](C(=O)O[C@H](C#N)c2cccc(Oc3ccccc3)c2)[C@@H]1C=C(Br)Br [5 mg DTM] | >60 | >60 | 6 | 4 | 6 | 6 | 7 | 15 | 19 | 13 | 6 | 
2 | CC1(C)[C@H](C(=O)O[C@H](C#N)c2cccc(Oc3ccccc3)c2)[C@@H]1C=C(Br)Br [40 mg DTM] | 10 | 40 | 53 | 66 | 76 | 92 | 97 | 100 | 100 | 83 | 22 | 
3 | CC1(C)[C@H](C(=O)O[C@H](C#N)c2cccc(Oc3ccccc3)c2)[C@@H]1C=C(Br)Br [10 mg DTM] | >60 | >60 | 2 | 2 | 2 | 5 | 9 | 18 | 26 | 17 | 0 | 
4 | CNC(=O)Oc1cccc2c1OC(C)(C)O2 [10 mg Bendiocarb] | >60 | >60 | 2 | 2 | 27 | 2 | 2 | 2 | 2 | 9 | 2 | 
5 | CNC(=O)Oc1cccc2c1OC(C)(C)O2 [5 mg Bendiocarb] | >60 | >60 | 6 | 6 | 6 | 6 | 6 | 6 | 6 | 12 | 6 | 
6 | O=C(CCCCCCCCC(=O)ON1C(=O)CCC1=O)ON1C(=O)CCC1=O [Derivative 4, Sebacic acid-bis-(N-succinimidyl)ester] |  |  |  |  |  |  |  |  |  |  |  | efficacy enhancement of the insecticide by the additive (summary in words) [2]: weaker as Compound A in both tests; efficacy enhancement of the insecticide by the additive (summary in words) ([2]; listed as Sebacic acid-bis-(N-succinimidyl)ester): equivalent to Compound A
7 | O=C(O)CC(O)(CC(=O)O)C(=O)O [citric acid] |  |  |  |  |  |  |  |  |  |  |  | efficacy enhancement of the insecticide by the additive (summary in words) [2]: better efficacy of bendiocarb alone
8 | CC1(C)CC(O)CC(C)(C)N1 [Derivative 7, 4-Hydroxy-2,2,6,6-tetramethylpiperidine] |  |  |  |  |  |  |  |  |  |  |  | efficacy enhancement of the insecticide by the additive (summary in words) [2]: superior to Compound A in the first test and inferior in the second test
9 | CNC(=O)Oc1cccc2c1OC(C)(C)O2 [20 mg Bendiocarb] | >60 | >60 | 6 | 4 | 6 | 13 | 13 | 20 | 21 | 27 | 3 | 
10 | CC1(C)CC(O)CC(C)(C)N1 |  |  |  |  |  |  |  |  |  |  |  | % KD and Mortality ([2]; 3′): 0%; % KD and Mortality ([2]; 9′): 0%; % KD and Mortality ([2]; 15′): 0%; % KD and Mortality ([2]; 30′): 0%; % KD and Mortality ([2]; 1 h): 0%; % KD and Mortality ([2]; 2 h): 0%; % KD and Mortality ([2]; 3 h): 0%; % KD and Mortality ([2]; 4 h): 0%; % KD and Mortality ([2]; 24 h (mortality)): 3%
11 | CCCCCCCCON1C(C)(C)CC(OC(=O)CCCCCCCCC(=O)OC2CC(C)(C)N(OCCCCCCCC)C(C)(C)C2)CC1(C)C [Derivative 5, Bis(1-octyloxy-2,2,6,6-tetramethyl-4-piperidyl)sebacate] |  |  |  |  |  |  |  |  |  |  |  | efficacy enhancement of the insecticide by the additive (summary in words) [2]: weaker as Compound A in both tests; efficacy enhancement of the insecticide by the additive (summary in words) ([2]; listed as bis(1-octyloxy-2,2,6,6-tetramethyl-4-piperidyl)sebacate): inhibited the efficacy of bendiocarb
12 | O=C(O)CCCCCCCCC(=O)O [Derivative 2, Sebacic acid] |  |  |  |  |  |  |  |  |  |  |  | efficacy enhancement of the insecticide by the additive (summary in words) ([2]; listed as Sebacic acid): no efficacy enhancement; efficacy enhancement of the insecticide by the additive (summary in words) ([2]; listed as derivative 2): acted weaker in both tests
13 | CC1(C)C(C=C(Br)Br)C1C(=O)OC(C#N)c1cccc(Oc2ccccc2)c1 (stereo not drawn) [20 mg DTM] | 21 | >60 | 23 | 39 | 45 | 52 | 66 | 79 | 86 | 75 | 9 | 
14 | CNC(=O)Oc1cccc2c1OC(C)(C)O2 [40 mg bendiocarb] | 12 | >60 | 50 | 56 | 68 | 74 | 76 | 81 | 85 | 94 | 16 | 
15 | O=C(CCCCCCCCC(=O)ON1C(=O)CCC1=O)ON1C(=O)CCC1=O |  |  |  |  |  |  |  |  |  |  |  | % KD and Mortality ([2]; 3′): 0%; % KD and Mortality ([2]; 9′): 0%; % KD and Mortality ([2]; 15′): 0%; % KD and Mortality ([2]; 30′): 0%; % KD and Mortality ([2]; 1 h): 0%; % KD and Mortality ([2]; 2 h): 0%; % KD and Mortality ([2]; 3 h): 0%; % KD and Mortality ([2]; 4 h): 0%; % KD and Mortality ([2]; 24 h (mortality)): 0%
